Reference: patent publication US8017612B2, “Piperazine compound and use thereof as a HCV polymerase inhibitor” (priority 2006, dated 2011)

Assays:
[1] = target: T1, HCV polymerase (NS5B) type 1b (Hepatitis C virus genotype 1b, UniProt P26663); test: Assay of enzyme (HCV polymerase) inhibitory activity, type 1b enzyme; format: biochemical, HCV BK strain (type 1b); conditions: HCV polymerase inhibitory activity IC50, 1b, type 1b enzyme
T1 construct: a region encoding NS5B (J Virol 1991 March, 65(3), 1105-13, 544 amino acids after deletion of 47 amino acids on the C-terminal); 6xHis (C); made in house; host or cells: Escherichia coli
Procedure, shortened: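 Rxn: NS5B 1b (BK, ΔC47, His6) 0.5 μg/ml; substrate RNA 5 μg/ml; ATP/GTP/CTP 50 μM, UTP 2 μM + [5,6-3H]UTP; 20 mM Tris pH 7.5, 5 mM MgCl2, 50 mM NaCl, 1 mM EDTA/DTT. 25 °C, 60 min. Stop with TCA/pyrophosphate, filter, scintillation count; IC50 vs. untreated.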

[2] = target: T2, HCV polymerase (NS5B) type 1a (Hepatitis C virus genotype 1a, UniProt P26664); test: Assay of enzyme (HCV polymerase) inhibitory activity, type 1a enzyme; format: biochemical, HCV type 1a (cloned from the blood of patients); conditions: HCV polymerase inhibitory activity IC50, 1a, type 1a enzyme
T2 construct: made in house; host or cells: Escherichia coli (by the 'similar method' of the 1b enzyme)
Procedure, shortened: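 NS5B Δ47 C-term His6 (type 1a, 1.5 μg/ml); substrate RNA 5 μg/ml; ATP/GTP/CTP 50 μM, UTP 2 μM + [5,6-3H]UTP; Tris pH 7.5, MgCl2 5 mM; 25° C, 60 min. TCA/pyrophosphate stop, GF/B filter, scintillation. IC50 vs no-compound control.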

## O=C(NCc1ccc(OC(F)(F)F)cc1)[C@H]1CN(c2nc3nc(C4CC4)[nH]c(=O)c3s2)CCN1S(=O)(=O)c1ccc(C(F)(F)F)cc1 [Example 1107, (R)-4-(5-cyclopropyl-7-oxo-6,7-dihydro-thiazolo[4,5-d]pyrimidin-2-yl)-1-(4-trifluoromethyl-benzenesulfonyl)-piperazine-2-carboxylic acid 4-trifluoromethoxy-benzylamide]
[1]
  IC50: < 100 nM
[2]
  IC50: 100 to 1000 nM

## O=C(NCc1ccc(OC(F)(F)F)cc1)[C@H]1CN(c2nc3nc(C4CC4)[nH]c(=O)c3s2)CCN1S(=O)(=O)c1ccc(OC(F)(F)F)cc1 [Example 1108, (R)-4-(5-cyclopropyl-7-oxo-6,7-dihydro-thiazolo[4,5-d]pyrimidin-2-yl)-1-(4-trifluoromethoxy-benzenesulfonyl)-piperazine-2-carboxylic acid 4-trifluoromethoxy-benzylamide]
[1]
  IC50: < 100 nM
[2]
  IC50: 100 to 1000 nM

## O=C(O)c1cncc2sc(N3CCN(S(=O)(=O)c4ccc(OC(F)(F)F)cc4)[C@@H](C(=O)NCc4ccc(OC(F)F)c(F)c4)C3)nc12 [Example 1109, 2-[(R)-3-(4-difluoromethoxy-3-fluoro-benzylcarbamoyl)-4-(4-trifluoromethoxy-benzenesulfonyl)-piperazin-1-yl]-thiazolo[5,4-c]pyridine-7-carboxylic acid]
[1]
  IC50: < 100 nM
[2]
  IC50: < 100 nM

## O=C(NCc1ccc(OC(F)(F)F)cc1)[C@H]1CN(c2nc3nc(C4CC4)ncc3s2)CCN1S(=O)(=O)c1ccc(OC(F)(F)F)cc1F [Example 1110, (R)-4-(5-cyclopropyl-thiazolo[4,5-d]pyrimidin-2-yl)-1-(2-fluoro-4-trifluoromethoxy-benzenesulfonyl)-piperazine-2-carboxylic acid 4-trifluoromethoxy-benzylamide]
[1]
  IC50: < 100 nM
[2]
  IC50: < 100 nM

## O=C(O)c1cnc(N2CCN(S(=O)(=O)c3ccc(OC(F)(F)F)cc3)[C@@H](C(=O)NCc3ccc(OC(F)F)c(F)c3)C2)cn1 [Example 1111, (R)-3-(4-difluoromethoxy-3-fluoro-benzylcarbamoyl)-4-(4-trifluoromethoxy-benzenesulfonyl)-3,4,5,6-tetrahydro-2H-[1,2′]bipyrazinyl-5′-carboxylic acid]
[1]
  IC50: < 100 nM
[2]
  IC50: < 100 nM

## O=C(O)CCn1ncc2sc(N3CCN(S(=O)(=O)c4ccc(OC(F)(F)F)cc4)[C@@H](C(=O)NCc4ccc(OC(F)(F)F)cc4)C3)nc2c1=O [Example 1112, 3-{4-oxo-2-[(R)-4-(4-trifluoromethoxy-benzenesulfonyl)-3-(4-trifluoromethoxy-benzylcarbamoyl)-piperazin-1-yl]-4H-thiazolo[4,5-d]pyridazin-5-yl}propionic acid]
[1]
  IC50: < 100 nM
[2]
  IC50: < 100 nM

## O=C(NCc1ccc(OC(F)F)c(F)c1)[C@H]1CN(c2nc3nc(C4CC4)[nH]c(=O)c3s2)CCN1S(=O)(=O)c1ccc(OC(F)(F)F)cc1 [Example 1113, (R)-4-(5-cyclopropyl-7-oxo-6,7-dihydro-thiazolo[4,5-d]pyrimidin-2-yl)-1-(4-trifluoromethoxy-benzenesulfonyl)-piperazine-2-carboxylic acid 4-difluoromethoxy-3-fluoro-benzylamide]
[1]
  IC50: < 100 nM
[2]
  IC50: < 100 nM

## O=C(NCc1ccc(OC(F)F)c(F)c1)[C@H]1CN(c2nc3nc(C4CC4)[nH]c(=O)c3s2)CCN1S(=O)(=O)c1ccc(C(F)(F)F)cc1 [Example 1114, (R)-4-(5-cyclopropyl-7-oxo-6,7-dihydro-thiazolo[4,5-d]pyrimidin-2-yl)-1-(4-trifluoromethyl-benzenesulfonyl)-piperazine-2-carboxylic acid 4-difluoromethoxy-3-fluoro-benzylamide]
[1]
  IC50: < 100 nM
[2]
  IC50: < 100 nM

## CC(=O)N1CCN(S(=O)(=O)c2ccc(C(C)C)cc2)C(C(=O)NCc2ccc(C(F)(F)F)cc2)C1 (stereo not shown) [Example 1115, 4-acetyl-1-(4-isopropyl-benzenesulfonyl)-piperazine-2-carboxylic acid 4-trifluoromethyl-benzylamide]
[1]
  IC50: > 1000 nM
[2]
  IC50: 100 to 1000 nM

## CC(=O)N1CCN(S(=O)(=O)c2ccc(C(C)C)cc2)[C@@H](C(=O)NCc2ccc(C(F)(F)F)cc2)C1 [Example 1116, (R)-4-acetyl-1-(4-isopropyl-benzenesulfonyl)-piperazine-2-carboxylic acid 4-trifluoromethyl-benzylamide]
[1]
  IC50: 100 to 1000 nM
[2]
  IC50: 100 to 1000 nM

## CC(=O)N1CCN(S(=O)(=O)c2ccc(C(C)C)cc2)[C@H](C(=O)NCc2ccc(C(F)(F)F)cc2)C1 [Example 1117, (S)-4-acetyl-1-(4-isopropyl-benzenesulfonyl)-piperazine-2-carboxylic acid 4-trifluoromethyl-benzylamide]
[1]
  IC50: > 1000 nM
[2]
  IC50: > 1000 nM

## O=C(O)Cn1ncc2sc(N3CCN(S(=O)(=O)c4ccc(OC(F)(F)F)cc4)[C@@H](C(=O)NCc4ccc(OC(F)F)c(F)c4)C3)nc2c1=O [Example 1121]
[1]
  IC50: < 100 nM
[2]
  IC50: < 100 nM

## O=C(O)c1cnc(N2CCN(S(=O)(=O)c3ccc(C(F)(F)F)cc3)[C@@H](C(=O)NCc3ccc(OC(F)F)c(F)c3)C2)cn1 [Example 1122]
[1]
  IC50: < 100 nM
[2]
  IC50: < 100 nM

## NC(=O)c1cncc2sc(N3CCN(S(=O)(=O)c4ccc(OC(F)(F)F)cc4)[C@@H](C(=O)NCc4ccc(OC(F)(F)F)cc4)C3)nc12 [Example 1123]
[1]
  IC50: < 100 nM
[2]
  IC50: < 100 nM
